Results taken from ChEMBL document CHEMBL4402571, “Methylation of Daptomycin Leading to the Discovery of Kynomycin, a Cyclic Lipodepsipeptide Active against Resistant Pathogens” (J Med Chem, 2020).
Converted amounts (≈) assume the structure as drawn. The source made the active and inactive calls. The rule behind the calls is not given here.

How the values were obtained:
Staphylococcus aureus [1] = assay: Antibacterial activity against daptomycin-resistant Staphylococcus aureus SA11 infected in Galleria mellonella larvae assessed as increase in larvae survival at 50 mg/kg measured up to 72 hrs post-infection; type: functional, organism-based
Staphylococcus aureus [2] = assay: Antibacterial activity against Staphylococcus aureus ATCC 29213 at sub-MIC after 7 serial passages by broth microdilution method; type: functional, organism-based
Enterococcus faecalis [3] = assay: Induction of cell membrane integrity disruption in Enterococcus faecalis ATCC 29212 at 16 ug/ml measured after 1 hr by SYTOX green staining based confocal laser scanning microscopic analysis; type: organism-based
Enterococcus faecalis [4] = assay: Bactericidal activity against Enterococcus faecalis ATCC 29212 assessed as reduction in bacterial load at 4 to 16 ug/ml preincubated for up to 24 hrs followed by subculturing on LB agar plate by time-kill assay; type: functional, organism-based
Staphylococcus aureus [5] = assay: Induction of cell membrane integrity disruption in Staphylococcus aureus ATCC 29213 at 8 ug/ml measured after 0.5 to 2 hrs by SYTOX green staining based fluorescence assay; type: organism-based
Staphylococcus aureus [6] = assay: Antibacterial activity against Staphylococcus aureus USA300 infected in Balb/c mouse model of sepsis assessed as bacterial eradication in kidney at 1.25 mg/kg, sc administered twice daily for 3 days starting from 1 hr post-infection followed by subculturing on LB agar plate and measured after overnight incubation; type: functional, organism-based
Staphylococcus aureus [7] = assay: Antibacterial activity against daptomycin-resistant Staphylococcus aureus SA11 infected in NIH mouse model of neutropenic thigh infection assessed reduction in bacterial level in thigh at 50 mg/kg, sc administered at 2 and 12 hrs post infection and measured at 48 to 60 hrs post-infection; type: functional, organism-based
Staphylococcus aureus [8] = assay: Antibacterial activity against methicillin-resistant Staphylococcus aureus ATCC 43300 infected in Galleria mellonella larvae assessed as increase in larvae survival at 50 mg/kg measured up to 72 hrs post-infection; type: functional, organism-based
Enterococcus faecalis [9] = assay: Induction of cell membrane integrity disruption in Enterococcus faecalis ATCC 29212 at 8 to 32 ug/ml measured after 0.5 to 2 hrs by SYTOX green staining based fluorescence assay; type: organism-based
Staphylococcus aureus [10] = assay: Bactericidal activity against Staphylococcus aureus ATCC 29213 assessed as reduction in bacterial load at 4 to 8 ug/ml preincubated for up to 24 hrs followed by subculturing on LB agar plate by time-kill assay; type: functional, organism-based
Enterococcus faecalis [11] = assay: Antibacterial activity against Enterococcus faecalis ATCC 29212 at sub-MIC after 7 serial passages by broth microdilution method; type: functional, organism-based
Staphylococcus aureus [12] = assay: Bactericidal activity against Staphylococcus aureus ATCC 29213 assessed as reduction in bacterial load at 16 ug/ml preincubated for 24 hrs followed by subculturing on LB agar plate by time-kill assay; type: functional, organism-based
Enterococcus faecalis [13] = assay: Antibacterial activity against daptomycin-resistant Enterococcus faecalis T1027 infected in NIH mouse model of neutropenic thigh infection assessed reduction in bacterial level in thigh at 50 mg/kg, sc administered at 2 and 12 hrs post infection and measured at 48 to 60 hrs post-infection; type: functional, organism-based
Enterococcus faecalis [14] = assay: Antibacterial activity against Enterococcus faecalis ATCC 29212 by broth microdilution method; type: functional
Enterococcus faecalis [15] = assay: Antibacterial activity against Streptococcus faecalis by broth microdilution method; type: functional
Staphylococcus aureus [16] = assay: Antibacterial activity against methicillin-resistant Staphylococcus aureus SA11 by broth microdilution method; type: functional
Staphylococcus aureus [17] = assay: Antibacterial activity against methicillin-resistant Staphylococcus aureus SA14 by broth microdilution method; type: functional
Enterococcus faecium [18] = assay: Antibacterial activity against Enterococcus faecium ET60 by broth microdilution method; type: functional
Staphylococcus aureus [19] = assay: Antibacterial activity against methicillin-resistant Staphylococcus aureus SA88 by broth microdilution method; type: functional
Staphylococcus aureus [20] = assay: Antibacterial activity against Staphylococcus aureus ATCC 29213 by broth microdilution method; type: functional
Enterococcus faecium [21] = assay: Antibacterial activity against Enterococcus faecium ET6 by broth microdilution method; type: functional
Staphylococcus aureus [22] = assay: Antibacterial activity against methicillin-resistant Staphylococcus aureus SA86 by broth microdilution method; type: functional
Enterococcus faecalis [23] = assay: Induction of cell membrane integrity disruption in Enterococcus faecalis ATCC 29212 at 16 ug/ml measured after 0.5 to 2 hrs by SYTOX green staining based fluorescence assay; type: organism-based
Enterococcus faecalis [24] = assay: Bactericidal activity against Enterococcus faecalis ATCC 29212 assessed as reduction in bacterial load at 16 ug/ml preincubated for up to 24 hrs followed by subculturing on LB agar plate by time-kill assay; type: functional, organism-based
Enterococcus faecalis [25] = assay: Antibacterial activity against Enterococcus faecalis ZS129 infected in Galleria mellonella larvae assessed as increase in larvae survival at 50 mg/kg measured up to 72 hrs post-infection; type: functional, organism-based
Enterococcus faecalis [26] = assay: Antibacterial activity against Enterococcus faecalis T1027 infected in Galleria mellonella larvae assessed as increase in larvae survival at 50 mg/kg measured 96 hrs post-infection; type: functional, organism-based
Enterococcus faecalis [27] = assay: Antibacterial activity against Enterococcus faecalis T1027 infected in Galleria mellonella larvae assessed as larvae survival at 50 mg/kg measured at 96 hrs post-infection relative to control; type: functional; details: T1027, 96 h
Staphylococcus aureus [28] = assay: Antibacterial activity against methicillin-resistant Staphylococcus aureus 0114 infected in iv dosed CD-1 ICR mouse administered as single dose measured after 7 days; type: functional; details: Staphylococcus aureus, 0114, iv, 168 h
Staphylococcus aureus [29] = assay: Antibacterial activity against Staphylococcus aureus ATCC 29213 assessed as mutation prevention concentration measured after 72 hrs; type: functional; details: ATCC 29213, 72 h
Enterococcus faecalis [30] = assay: Bactericidal activity against Enterococcus faecalis ATCC 29212 incubated prior to replating on agar plate measured after overnight incubation; type: functional
Staphylococcus aureus [31] = assay: Bactericidal activity against Staphylococcus aureus ATCC 29213 incubated prior to replating on agar plate measured after overnight incubation; type: functional
Staphylococcus aureus [32] = assay: Antibacterial activity against Staphylococcus aureus USA300 infected in Balb/c mouse model of sepsis assessed as mouse survival at 0.925 mg/kg, sc administered twice daily for 5 days starting from 1 hr post-infection relative to control; type: functional
Enterococcus faecalis [33] = assay: Antibacterial activity against Enterococcus faecalis ZS129 infected in Galleria mellonella larvae assessed as larvae survival at 50 mg/kg measured at 96 hrs post-infection relative to control; type: functional; details: ZS129, 96 h
Enterococcus faecalis [34] = assay: Antibacterial activity against Enterococcus faecalis ATCC 29212 assessed as mutation prevention concentration measured after 72 hrs; type: functional; details: ATCC 29212, 72 h
Staphylococcus aureus [35] = assay: Antibacterial activity against methicillin-resistant Staphylococcus aureus ATCC 33591 infected in iv dosed CD-1 ICR mouse administered as single dose measured after 7 days; type: functional; details: ATCC 33591, iv, 168 h

SMILES | Activity (Staphylococcus aureus [1]) | Activity (Enterococcus faecalis [3]) | Activity (Staphylococcus aureus [5]) | Activity (Staphylococcus aureus [6]) | Activity (Staphylococcus aureus [7]) | Activity (Staphylococcus aureus [8]) | Activity (Staphylococcus aureus [10]) | Activity (Enterococcus faecalis [11]) | Activity (Enterococcus faecalis [13]) | MIC (Enterococcus faecalis [14]) | MIC (Enterococcus faecalis [15]) | MIC (Staphylococcus aureus [16]) | MIC (Staphylococcus aureus [17]) | MIC (Enterococcus faecium [18]) | MIC (Staphylococcus aureus [19]) | MIC (Staphylococcus aureus [20]) | MIC (Enterococcus faecium [21]) | MIC (Staphylococcus aureus [22]) | also measured
CCCCCCCCCC(=O)N[C@@H](Cc1c[nH]c2ccccc12)C(=O)N[C@@H](CC(N)=O)C(=O)N[C@@H](CC(=O)O)C(=O)N[C@@H]1C(=O)NCC(=O)N[C@@H](CCCN)C(=O)N[C@@H](CC(=O)O)C(=O)N[C@H](C)C(=O)N[C@@H](CC(=O)O)C(=O)NCC(=O)N[C@H](CO)C(=O)N[C@@H]([C@H](C)CC(=O)O)C(=O)N[C@@H](CC(=O)c2ccccc2NC)C(=O)O[C@@H]1C | Active | Active | Active | Active | Active | Active | Active | inactive | Active |  |  |  |  |  |  |  |  |  | Activity (Staphylococcus aureus [2]): Active; Activity (Enterococcus faecalis [4]): Active; Activity (Enterococcus faecalis [9]): Active; Activity (Staphylococcus aureus [12]): Active
CCCCCCCCCC(=O)N[C@@H](Cc1c[nH]c2ccccc12)C(=O)N[C@@H](CC(N)=O)C(=O)N[C@@H](CC(=O)O)C(=O)N[C@@H]1C(=O)N(C)CC(=O)N[C@@H](CCCN)C(=O)N[C@@H](CC(=O)O)C(=O)N[C@H](C)C(=O)N[C@@H](CC(=O)O)C(=O)NCC(=O)N[C@H](CO)C(=O)N[C@@H]([C@H](C)CC(=O)O)C(=O)N[C@@H](CC(=O)c2ccccc2N)C(=O)O[C@@H]1C |  |  |  |  |  |  |  |  |  | 8 µg/mL (≈ 4.89 µM) | 2 µg/mL (≈ 1.22 µM) | 0.5 µg/mL (≈ 0.306 µM) | 0.25 µg/mL (≈ 0.153 µM) | 4 µg/mL (≈ 2.45 µM) | 0.5 µg/mL (≈ 0.306 µM) | 0.5 µg/mL (≈ 0.306 µM) | 8 µg/mL (≈ 4.89 µM) | 0.5 µg/mL (≈ 0.306 µM) | 
CCCCCCCCCC(=O)N[C@@H](Cc1c[nH]c2ccccc12)C(=O)N[C@@H](CC(N)=O)C(=O)N[C@@H](CC(=O)O)C(=O)N[C@@H]1C(=O)NCC(=O)N[C@@H](CCCN)C(=O)N[C@H](CC(=O)O)C(=O)N[C@H](C)C(=O)N[C@@H](CC(=O)O)C(=O)NCC(=O)N[C@H](CO)C(=O)N[C@@H]([C@@H](C)CC(=O)O)C(=O)N[C@@H](CC(=O)c2ccccc2N)C(=O)O[C@@H]1C | Active | Active | Active | inactive | Active | Active | Active | inactive | Active |  |  |  |  |  |  |  |  |  | Activity (Enterococcus faecalis [23]): Active; Activity (Enterococcus faecalis [24]): Active; Activity (Enterococcus faecalis [25]): Active; Activity (Enterococcus faecalis [26]): Active
CCCCCCCCCC(=O)N[C@@H](Cc1c[nH]c2ccccc12)C(=O)N[C@H](CC(N)=O)C(=O)N[C@@H](CC(=O)O)C(=O)N[C@@H]1C(=O)NCC(=O)N[C@@H](CCCN)C(=O)N[C@@H](CC(=O)O)C(=O)N[C@H](C)C(=O)N[C@@H](CC(=O)O)C(=O)NCC(=O)N[C@H](CO)C(=O)N[C@@H]([C@H](C)CC(=O)O)C(=O)N[C@@H](CC(=O)c2ccccc2NC)C(=O)O[C@@H]1C |  |  |  |  |  |  |  |  |  | 1 µg/mL (≈ 0.612 µM) | 0.5 µg/mL (≈ 0.306 µM) | 0.5 µg/mL (≈ 0.306 µM) | 0.25 µg/mL (≈ 0.153 µM) | 1 µg/mL (≈ 0.612 µM) | 0.25 µg/mL (≈ 0.153 µM) | 0.25 µg/mL (≈ 0.153 µM) | 1 µg/mL (≈ 0.612 µM) | 0.25 µg/mL (≈ 0.153 µM) | survival at 50 mg/kg (Enterococcus faecalis [27]): 60%; ED50 (Staphylococcus aureus [28]): 1.65 mg/kg; MPC (Staphylococcus aureus [29]): 8 µg/mL; MBC (Enterococcus faecalis [30]): 4 µg/mL (≈ 2.45 µM); MBC (Staphylococcus aureus [31]): 0.06 µg/mL (≈ 0.0367 µM); survival at 0.925 mg/kg (Staphylococcus aureus [32]): 100%; survival at 50 mg/kg (Enterococcus faecalis [33]): 40%; MPC (Enterococcus faecalis [34]): 16 µg/mL; ED50 (Staphylococcus aureus [35]): 1.38 mg/kg
